ChEMBL document CHEMBL2021850, “Steroidal C-21 heteroaryl thioethers. Part 3: pregn-4-eno-[3,2-c]pyrazole fused A ring modified steroids as selective glucocorticoid receptor modulators (dissociated steroids)” (Bioorg Med Chem Lett, 2012)

Legend:
Glucocorticoid receptor [1] = molecular target: T1, Glucocorticoid receptor (Homo sapiens, UniProt P04150); assay: Transactivation activity at human glucocorticoid receptor in cells co-expressing GRE by luciferase reporter gene assay relative to control; details: read-out: Efficacy
T1 sequence (P04150 whole entry): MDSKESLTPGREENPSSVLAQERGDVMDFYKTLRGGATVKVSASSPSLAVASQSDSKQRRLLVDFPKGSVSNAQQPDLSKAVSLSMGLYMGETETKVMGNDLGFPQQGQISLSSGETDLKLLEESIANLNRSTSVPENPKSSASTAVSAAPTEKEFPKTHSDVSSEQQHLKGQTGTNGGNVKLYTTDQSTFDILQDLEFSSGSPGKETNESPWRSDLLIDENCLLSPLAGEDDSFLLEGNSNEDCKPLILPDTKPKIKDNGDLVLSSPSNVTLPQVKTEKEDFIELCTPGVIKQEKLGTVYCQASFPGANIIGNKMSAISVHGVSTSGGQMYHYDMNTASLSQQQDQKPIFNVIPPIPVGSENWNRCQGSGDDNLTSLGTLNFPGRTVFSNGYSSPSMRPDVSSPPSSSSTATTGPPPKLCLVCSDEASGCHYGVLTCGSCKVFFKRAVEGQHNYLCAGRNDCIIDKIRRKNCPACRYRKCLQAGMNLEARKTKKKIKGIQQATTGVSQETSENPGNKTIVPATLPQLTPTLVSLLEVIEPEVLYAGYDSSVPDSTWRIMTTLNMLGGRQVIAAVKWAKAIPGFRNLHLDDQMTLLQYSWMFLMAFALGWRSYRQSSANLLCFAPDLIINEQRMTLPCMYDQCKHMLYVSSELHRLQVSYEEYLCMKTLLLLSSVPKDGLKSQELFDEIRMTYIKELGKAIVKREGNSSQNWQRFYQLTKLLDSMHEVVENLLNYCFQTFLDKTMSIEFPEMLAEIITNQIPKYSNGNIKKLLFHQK

Glucocorticoid receptor [2] = molecular target: T1, Glucocorticoid receptor; assay: Transrepression activity at glucocorticoid receptor in human H292 cells assessed as inhibition of TNF-induced IL8 production; type: cell-based
Glucocorticoid receptor [3] = molecular target: T1, Glucocorticoid receptor; assay: Transactivation activity at glucocorticoid receptor in human HepG2 cells assessed as induction of tyrosine aminotransferase; type: ADME, cell-based
Glucocorticoid receptor [4] = molecular target: T1, Glucocorticoid receptor; assay: Transactivation activity at human glucocorticoid receptor in cells co-expressing GRE by luciferase reporter gene assay; details: read-out: IC50 (the source's name)
Glucocorticoid receptor [5] = molecular target: T2, Glucocorticoid receptor (Rattus norvegicus, UniProt P06536); assay: Transactivation activity at glucocorticoid receptor in rat H4II-E cells assessed as induction of tyrosine aminotransferase; type: ADME, cell-based
T2 sequence (P06536 whole entry): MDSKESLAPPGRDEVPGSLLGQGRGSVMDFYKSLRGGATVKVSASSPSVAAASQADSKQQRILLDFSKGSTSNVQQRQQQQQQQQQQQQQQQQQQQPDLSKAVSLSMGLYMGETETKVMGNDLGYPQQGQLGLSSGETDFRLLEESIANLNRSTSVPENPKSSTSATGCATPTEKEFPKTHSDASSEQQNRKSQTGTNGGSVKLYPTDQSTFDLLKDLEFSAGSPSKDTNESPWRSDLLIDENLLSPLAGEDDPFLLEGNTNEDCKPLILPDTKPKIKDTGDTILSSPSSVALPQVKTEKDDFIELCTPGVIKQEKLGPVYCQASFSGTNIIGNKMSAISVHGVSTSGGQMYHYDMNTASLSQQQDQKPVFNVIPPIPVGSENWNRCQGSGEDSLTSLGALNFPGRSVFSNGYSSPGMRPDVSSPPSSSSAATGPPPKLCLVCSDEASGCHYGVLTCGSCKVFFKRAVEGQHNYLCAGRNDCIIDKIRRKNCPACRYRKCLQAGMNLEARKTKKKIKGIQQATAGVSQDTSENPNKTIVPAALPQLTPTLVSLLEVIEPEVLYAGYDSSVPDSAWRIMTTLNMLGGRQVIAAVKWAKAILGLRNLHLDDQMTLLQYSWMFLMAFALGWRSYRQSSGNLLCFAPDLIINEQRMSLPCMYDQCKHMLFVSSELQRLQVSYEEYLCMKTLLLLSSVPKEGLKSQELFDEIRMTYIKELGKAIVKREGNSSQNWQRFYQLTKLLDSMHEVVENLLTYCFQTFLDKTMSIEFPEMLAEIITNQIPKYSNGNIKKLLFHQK

[6] = AUC in po dosed rat; type: ADME, organism-based; details: plasma
[7] = Cmax in po dosed rat; type: ADME, organism-based; set-up: route oral; details: in vivo
Rattus norvegicus [8] = assay: Antiinflammatory activity in Brown Norway rat lung inflammation model assessed as total cell inhibition at 10 mg/kg, po for 3 days; type: functional; details: 72 h
Rattus norvegicus [9] = assay: Transactivation activity in Brown Norway rat lung inflammation model assessed as thymolysis measuring decrease in thymus weight at 10 mg/kg, po for 3 days; type: organism-based; set-up: dose 10 mg/kg, route oral; scale not given: the % may be the effect or the level left; details: in vivo, 72 h
Glucocorticoid receptor [10] = molecular target: T1, Glucocorticoid receptor; assay: Inhibition of human glucocorticoid receptor
Rattus norvegicus [11] = assay: Antiinflammatory activity in Brown Norway rat lung inflammation model assessed as total cell inhibition at 2 mg/kg, it; type: functional; details: route endotracheal

| SMILES | Emax (Glucocorticoid receptor [1]) [%] | IC50 (Glucocorticoid receptor [2]) [nM] | IC50 (Glucocorticoid receptor [3]) [nM] | EC50 (Glucocorticoid receptor [4]) [nM] | IC50 (Glucocorticoid receptor [5]) [nM] | AUC [6] [ng·h/mL] | Cmax [7] [ng/mL] | inhibition in vivo at 10 mg/kg (Rattus norvegicus [8]) [%] | Activity (Rattus norvegicus [9]) [%] | IC50 (Glucocorticoid receptor [10]) [nM] | inhibition in vivo at 2 mg/kg (Rattus norvegicus [11]) [%] |
| --- | --- | --- | --- | --- | --- | --- | --- | --- | --- | --- | --- |
| Cn1c(SCC(=O)[C@@]2(O)CC[C@H]3[C@@H]4CCC5=Cc6c(cnn6-c6ccccc6)C[C@]5(C)[C@H]4[C@@H](O)C[C@@]32C)nc2ccccc21 | 64 | 4.7 | 66.7 | 19.1 | 78 | – | – | – | – | – | – |
| Cc1nc(SCC(=O)[C@@]2(O)CC[C@H]3[C@@H]4CCC5=Cc6c(cnn6C6CCCCC6)C[C@]5(C)[C@H]4[C@@H](O)C[C@@]32C)sc1C | 88 | 2.8 | 168 | 31.8 | 135 | – | – | – | – | – | – |
| C[C@]12C=CC(=O)C=C1CC[C@@H]1[C@@H]2[C@@H](O)C[C@@]2(C)[C@H]1CC[C@]2(O)C(=O)CO [PREDNISOLONE] | – | – | – | – | – | 1250 | 682 | 56 | 53 | – | – |
| C[C@]12CCC(=O)C=C1CC[C@@H]1[C@@H]2[C@@H](O)C[C@@]2(C)[C@H]1CC[C@]2(O)C(=O)CSc1nc2ccccc2o1 | 35 | 26.7 | – | – | – | – | – | – | – | 3.9 | – |
| C[C@]12Cc3cnn(-c4ccccc4)c3C=C1CC[C@@H]1[C@@H]2[C@@H](O)C[C@@]2(C)[C@H]1CC[C@]2(O)C(=O)CSc1ccccn1 | 102 | 1.5 | 596 | 8.4 | 225 | – | – | – | – | – | – |
| C[C@]12Cc3cnn(-c4ccccc4)c3C=C1CC[C@@H]1[C@@H]2[C@@H](O)C[C@@]2(C)[C@H]1CC[C@]2(O)C(=O)CSc1nc2ncccc2o1 | 83 | 0.89 | 37.7 | – | 33.8 | 2030 | 467 | 62 | 67 | – | – |
| C[C@]12CCC(=O)C=C1CC[C@@H]1[C@@H]2[C@@H](O)C[C@@]2(C)[C@H]1CC[C@]2(O)C(=O)CSc1cnc2ccccc2n1 | 1 | 22.1 | – | – | – | 274 | 255 | 39 | 0 | – | – |
| C=CCn1c(SCC(=O)[C@@]2(O)CC[C@H]3[C@@H]4CCC5=Cc6c(cnn6-c6ccccc6)C[C@]5(C)[C@H]4[C@@H](O)C[C@@]32C)nc2ccccc21 | 86 | 3.43 | 278 | 28.6 | 258 | – | – | – | – | – | – |
| Cc1nc(SCC(=O)[C@@]2(O)CC[C@H]3[C@@H]4CCC5=CC(=O)CC[C@]5(C)[C@H]4[C@@H](O)C[C@@]32C)sc1C | 57 | 21.9 | – | – | – | – | – | – | – | 4.3 | – |
| C[C@]12Cc3cnn(-c4ccc(F)cc4)c3C=C1CC[C@@H]1[C@@H]2[C@@H](O)C[C@@]2(C)[C@H]1CC[C@]2(O)C(=O)CSc1nc2ncccc2o1 | – | 0.32 | 38.6 | – | 13.3 | 1630 | 348 | 48 | 70 | – | – |
| C[C@]12CCC(=O)C=C1CC[C@@H]1[C@@H]2[C@@H](O)C[C@@]2(C)[C@H]1CC[C@]2(O)C(=O)CSc1nc2ncccc2s1 | 16 | 59.1 | – | – | – | – | – | – | – | 4.7 | – |
| C[C@]12CCC(=O)C=C1CC[C@@H]1[C@@H]2[C@@H](O)C[C@@]2(C)[C@H]1CC[C@]2(O)C(=O)CSc1ccccn1 | 14 | 23.8 | – | – | – | – | – | – | – | 14.9 | – |
| C[C@]12CCC(=O)C=C1CC[C@@H]1[C@@H]2[C@@H](O)C[C@@]2(C)[C@H]1CC[C@]2(O)C(=O)CSc1ccc2ccccc2n1 | 0 | 89.3 | – | – | – | – | – | – | – | 6.6 | – |
| Cn1c(SCC(=O)[C@@]2(O)CC[C@@]3(C)[C@@H]4CCC5=CC(=O)CC[C@]5(C)[C@H]4[C@@H](O)C[C@@]32C)nc2ccccc21 | 8 | 56.1 | – | – | – | 150 | 115 | 39 | 5 | 8.9 | – |
| C[C@]12Cc3cnn(-c4ccc(F)cc4)c3C=C1CC[C@@H]1[C@@H]2[C@@H](O)C[C@@]2(C)[C@H]1CC[C@]2(O)C(=O)CSc1cnc2ccccc2n1 | – | 1.99 | – | – | – | – | – | – | – | – | 9 |
| C[C@]12Cc3cnn(-c4ccccc4)c3C=C1CC[C@@H]1[C@@H]2[C@@H](O)C[C@@]2(C)[C@H]1CC[C@]2(O)C(=O)CSc1cnc2ccccc2n1 | 68 | 5.36 | 226 | – | 113 | 64 | 21 | – | – | – | 28 |
| C[C@]12Cc3cnn(-c4ccccc4)c3C=C1CC[C@@H]1[C@@H]2[C@@H](O)C[C@@]2(C)[C@H]1CC[C@]2(O)C(=O)CSc1ccc2ccccc2n1 | 69 | 14.8 | 60.1 | 101 | 82.3 | – | – | – | – | – | – |
